Reference: patent US10274488B2, “Glycan arrays on PTFE-like aluminum coated glass slides and related methods” (Academia Sinica, priority 2008, dated 2019)

Columns and labels:
Type in all cases: biochemical, Clostridium thermocellum
endoglucanase 44A [1] = assay: Enzymatic hydrolysis on the PTFE-like ACG surface with endoglucanase 44A, MS-TOF assay; conditions: substrate immobilized on the PTFE-like ACG surface
Procedure: (§1) For each carbohydrate, a specific enzyme was added: (a) is the control run without enzymes, (b) is exoglucanase L3, and (c) is endoglucanase 44A. […]
For comparison and as illustrated according to implementations shown in FIG. 23, substrate 8, 9, and 10 were immobilized on the PTFE-like ACG surface and carried out the cellulase hydrolysis on the surface directly, after the same washing procedures, these slides were subjected to MS-TOF assay. […] The endoglucanase 44A can't accept compound 8 or 9 as a substrate. […] From the above results, the cellotetraose substrate 10 was the best carbohydrate to create array on the PTFE-like ACG surface for the experiments conducted. By using this array, the activity and specificity of unknown cellulase may be examined.
Cellulase was prepared (5 U/mL in 25 mM pH 5.05 NaOAc buffer solution). Substrate was also dissolved in NaOAc buffer solution (25 mM, pH 5.05) to give 0.5 mM substrate solution. Add 50 μL cellulase solution to 50 μL substrate solution onto the glass slide which was loaded in FAST® Frame multi-slide plate to have a 2.5 U/mL cellulase solution with 0.25 mM substrate. The well of the plate was sealed and the whole assembly was incubated in 37° C. for 18 hours. Put the slide in dry box to remove the water, and then use high vacuum to remove trace water. 100 uL water was used to rinse each well of the FAST® Frame multi-slide plate to solve and remove the salt of the buffer solution. Remove any residual water on the plate by high vacuum and then analyzed the slide by MALDI-TOF Ultra-Flex II.
(§2) The genomic DNA of Sulfolobus solfataricus (ATCC 35092) and Clostridium thermocellum (ATCC 27405) were obtained from the ATCC biological resource center. The Sso7d (NCBI accession number: AAK42090) gene fragment was amplified directly from the Sulfolobus solfataricus genome by polymerase chain reaction (PCR) with forward 5′ […] 3′ (SEQ ID NO: 1) and reverse 5′ […] 3′ (SEQ ID NO: 2) primers. […]

endoglucanase 44A [2] = assay: Enzymatic hydrolysis in solution with purified endoglucanase 44A, MS-TOF assay; conditions: reaction in solution
Procedure: (§3) To verify, the exoglucanases (L3) and endoglucanase (44A) were prepared according methods well known in the literature with minor modifications. First, enzymatic hydrolysis reactions were conducted in solution with the purified enzymes using substrates 8, 9 and 10. At the completion of the reaction, the solution mixtures were transferred to the PTFE-like ACG slide, and prepared by using the same washing procedures before being subjected to MS-TOF assay.
as §1
(§4) Cellulase was prepared (5 U/mL in 25 mM pH 5.05 NaOAc buffer solution). Substrate was also dissolved in NaOAc buffer solution (25 mM, pH 5.05) to give 0.5 mM substrate solution. Add 100 uL cellulase solution to 100 uL substrate solution in eppendorf to have a 2.5 U/mL cellulase solution with 0.25 mM substrate. This solution was incubated in 37° C. for 18 hours. Add 100 μL incubated solution onto the slide loaded in FAST® Frame. Put the slide in dry box to remove the water, and then use high vacuum to remove trace water. 100 μL water was used to rinse each well of the FAST® Frame multi-slide plate to solve and remove the salt of the buffer solution. Remove any residual water on the plate by high vacuum and then analyzed the slide by MALDI-TOF Ultra-Flex II.
as §2, with “primers. The PCR product encoding Sso7d was digested with NdeI and BamHI and subsequently cloned into expression vector pET-28a (Novagen) to generate pET-28-Sso7d.” for “primers.”

exoglucanase L3 = assay: Enzymatic hydrolysis in solution with purified exoglucanase L3, MS-TOF assay; conditions: reaction in solution
Procedure: as §3, §1, §4
as §2, with “primers. The PCR product encoding Sso7d was digested with NdeI and BamHI and subsequently cloned into expression vector pET-28a (Novagen) to generate pET-28-Sso7d.” for “primers.”

Structure (SMILES) | Cleavage of the substrate by endoglucanase 44A (in words) (endoglucanase 44A [1]) | Cleavage of the substrate by endoglucanase 44A (in words) (endoglucanase 44A [2]) | Cleavage of the substrate by exoglucanase L3 (in words) (exoglucanase L3)
O=C(NCCCCCO[C@@H]1O[C@H](CO)[C@@H](O[C@@H]2O[C@H](CO)[C@@H](O)[C@H](O)[C@H]2O)[C@H](O)[C@H]1O)OCCCC(F)(F)C(F)(F)C(F)(F)C(F)(F)C(F)(F)C(F)(F)C(F)(F)C(F)(F)F [Compound 8, [(4,4,5,5,6,6,7,7,8,8,9,9,10,10,11,11,12,12,12-nonadecafluorododecoxycarbonyl-amino)pentyl] ß-D-cellobioside] | can't accept | can't accept | slowly
O=C(NCCCCCO[C@@H]1O[C@H](CO)[C@@H](O[C@@H]2O[C@H](CO)[C@@H](O[C@@H]3O[C@H](CO)[C@@H](O)[C@H](O)[C@H]3O)[C@H](O)[C@H]2O)[C@H](O)[C@H]1O)OCCCC(F)(F)C(F)(F)C(F)(F)C(F)(F)C(F)(F)C(F)(F)C(F)(F)C(F)(F)C(F)(F)F [Compound 9, [(4,4,5,5,6,6,7,7,8,8,9,9,10,10,11,11,12,12,12-nonadecafluorododecoxycarbonyl-amino)pentyl] ß-D-glucopyranosyl-(1→4)-ß-D-glucopyranosyl-(1→4)- -ß-D-glucopyranoside] | can't accept | can't accept | quickly
